Test results reported in patent EP0369453A2, “AGE-formation inhibitory agents” (Takeda Chemical Industries, Ltd., priority 1988, dated 1990).
Marks after values point to notes of the source that are not given here.

The compounds below were run on advanced glycosylated end products (AGE) (assay: AGE formation inhibition: bovine serum albumin incubated with D-glucose, fluorescence measurement (method of Brownlee et al.)). Conditions: Concentration of test specimen: 0.5 mM; bovine serum albumin 20%, D-glucose 100 mM, 0.5M phosphate buffer pH 7.4, 37° C for 7 days; fluorescence 370/440 nm; control = 100%.
Type: biochemical
Method: The production of advanced glycosylated end products (AGE) and its measurement were carried out in accordance with the report by Brownlee et al. [Science, 232 1629 (1986)]. Thus, bovine serum albumin (fraction V, manufactured by Wako Pure Chemical Ind. of Japan, 20%), D-glucose (100 mM) and sodium azide (3 mM) were dissolved in 0.5M phosphate buffer (pH 7.4) to prepare a reaction solution (control). A test specimen was dissolved in dimethyl sulfoxide, and the solution was added to the reaction solution to the concentrations 1 mM, 0.5 mM and 0.2 mM, respectively. These solutions were incubated at 37° C for 7 days, whereupon the solutions, before and after incubation, were diluted with phosphate buffer, followed by measurement of fluoresceces (by use of RF-510 spectrofluorimeter, manufactured by Shimadzu Seisakusho of Japan) at 370 nm of the excitation wavelength and 440 nm of the emission wavelength. The variation in fluorescence (F) was utilized to calculate the formation ratio (%) following the formula described below. In the above tests, the blind test was carried out using the reaction solution free from D-glucose. The AGE were calculated by the following equation: Formation ratio = [ F(T) - F(B)]/[ F(C) - F(B)] x 100 [formula] where F(T), F(B) and F(C) are variations in fluorescence for test specimen, blind test specimen and control, respectively.

**Q.** How did the “AGE Formation Ratio (% against the control value)” value turn out when `CCc1sc(NC(=S)NC(=O)c2ccccc2)nc1-c1ccc2c(c1)CCCC2` [Example 20] was run?
**A.** Its value is 0^2) %.

**Q.** Which “AGE Formation Ratio (% against the control value)” value does the source give for `Cc1ccc(C)c(C(=O)NC(=S)Nc2nc(-c3ccc4c(c3)CCCC4)cs2)c1` [Example 42] here?
**A.** The value was 35^2) %.

**Q.** For `O=C(NC(=S)Nc1nc(-c2ccc3c(c2)CCCC3)cs1)c1ccc(F)cc1` [Example 26], which “AGE Formation Ratio (% against the control value)” value is on record?
**A.** The value was 34^2) %.

**Q.** `O=C(NC(=S)Nc1nc(-c2ccc3c(c2)CCCC3)cs1)c1ccc2ccccc2c1` [Example 34] was tested. Which “AGE Formation Ratio (% against the control value)” value did it give?
**A.** The value was 0^2) %.

**Q.** Which “AGE Formation Ratio (% against the control value)” value does the source give for `O=C(NC(=S)Nc1nc(-c2ccc3c(c2)CCCC3)cs1)c1ccc2c(c1)CCCC2` [Example 60] here?
**A.** Its value is 17^2) %.

**Q.** `O=C(NC(=S)Nc1nc(-c2ccc3c(c2)CCCC3)cs1)c1ccccc1` [Example 1, 1-benzoyl-3-[4-(5,6,7,8-tetrahydro-2-naphthyl)-2-thiazolyl] thiourea] was tested. Which “AGE Formation Ratio (% against the control value)” value did it give?
**A.** The value was 43^2) %.

**Q.** For `CC(C)c1sc(NC(=S)NC(=O)c2ccccc2)nc1-c1ccc2c(c1)CCCC2` [Example 21], which “AGE Formation Ratio (% against the control value)” value is on record?
**A.** The value was 19^2) %.

**Q.** `O=C(NC(=S)Nc1nc(-c2ccc3c(c2)CCCC3)cs1)c1ccncc1` [Example 31] was tested. Which “AGE Formation Ratio (% against the control value)” value did it give?
**A.** Its value is 53^2) %.

**Q.** With `O=C(NC(=S)Nc1nc(-c2ccc3ccccc3c2)cs1)c1ccccc1` [Example 15] as the compound, how does the “AGE Formation Ratio (% against the control value)” value read?
**A.** The value was 46^2) %.

Same assay, conditions: Concentration of test specimen: 1 mM; bovine serum albumin 20%, D-glucose 100 mM, 0.5M phosphate buffer pH 7.4, 37° C for 7 days; fluorescence 370/440 nm; control = 100%

**Q.** With `O=C(NC(=S)Nc1nc(-c2ccc3c(c2)CCCC3)cs1)c1c2ccccc2cc2ccccc12` [Example 63] as the compound, how does the “AGE Formation Ratio (% against the control value)” value read?
**A.** Its value is 54^1) %.

**Q.** Which “AGE Formation Ratio (% against the control value)” value does the source give for `O=C(NC(=S)Nc1nc(-c2ccc(Cl)cc2)cs1)c1ccccc1` [Example 10] here?
**A.** The value was 30^1) %.

**Q.** How did the “AGE Formation Ratio (% against the control value)” value turn out when `O=C(NC(=S)Nc1nc(-c2ccc3c(c2)CCCC3)c(-c2ccccc2)s1)c1ccccc1` [Example 22] was run?
**A.** Its value is 31^1) %.

**Q.** Which “AGE Formation Ratio (% against the control value)” value does the source give for `O=C(/C=C/c1ccccc1)NC(=S)Nc1nc(-c2ccc3c(c2)CCCC3)cs1` [Example 37] here?
**A.** The value was 49^1) %.

**Q.** `Cc1ccccc1C(=O)NC(=S)Nc1nc(-c2ccc3c(c2)CCCC3)cs1` [Example 27] was tested. Which “AGE Formation Ratio (% against the control value)” value did it give?
**A.** Its value is 0^1) %.

**Q.** Which “AGE Formation Ratio (% against the control value)” value does the source give for `COc1ccc(-c2csc(NC(=S)NC(=O)c3ccccc3)n2)cc1` [Example 11] here?
**A.** The value was 66^1) %.

**Q.** Which “AGE Formation Ratio (% against the control value)” value does the source give for `O=C(NC(=S)Nc1nc(-c2ccc3c(c2)CCCC3)cs1)c1ccccc1C(F)(F)F` [Example 47] here?
**A.** The value was 16^1) %.

**Q.** With `O=C(NC(=S)Nc1nc(-c2ccc3c(c2)OCCO3)cs1)c1ccccc1` [Example 13] as the compound, how does the “AGE Formation Ratio (% against the control value)” value read?
**A.** The value was 45^1) %.

**Q.** Which “AGE Formation Ratio (% against the control value)” value does the source give for `Cc1ccc(-c2csc(NC(=S)NC(=O)c3ccccc3)n2)cc1` [Example 4] here?
**A.** The value was 47^1) %.

**Q.** With `O=C(NC(=S)Nc1nc(-c2ccc(C(F)(F)F)cc2)cs1)c1ccccc1` [Example 8] as the compound, how does the “AGE Formation Ratio (% against the control value)” value read?
**A.** The value was 58^1) %.

**Q.** With `CCCCC(CC)C(=O)NC(=S)Nc1nc(-c2ccc3c(c2)CCCC3)cs1` (stereo not drawn) [Example 72] as the compound, how does the “AGE Formation Ratio (% against the control value)” value read?
**A.** Its value is 58^1) %.

**Q.** With `O=C(NC(=S)Nc1nc(-c2ccc3c(c2)CCCC3)cs1)c1ccc(Cl)cc1` [Example 23, 1-(4-chlorobenzoyl)-3-[4-(5,6.7,8-tetrahydro-2-naphthyl-)2-thiazolyl]thiourea] as the compound, how does the “AGE Formation Ratio (% against the control value)” value read?
**A.** The value was 51^1) %.
